Source: PubChem BioAssay (NCI)
Several values for one entry are separate records, joined by “and”; a condition that tells them apart may be missing. Equal values may be shown once.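 Results reflect a 48-hour exposure of cells in 96-well plates to compound at five concentrations. GI50 is the concentration that inhibits growth by half. The concentration for full growth arrest is given as TGI.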

Columns and labels:
Assay in all cases: inhibition of tumour cell growth, NCI panel, 48 h
HL-60(TB) leukemia = test system: HL-60(TB) leukemia
K-562 leukemia = test system: K-562 leukemia
KM12 colon = test system: KM12 colon
MALME-3M melanoma = test system: MALME-3M melanoma
MOLT-4 leukemia = test system: MOLT-4 leukemia
NCI/ADR-RES ovarian = test system: NCI/ADR-RES ovarian
SF-268 CNS = test system: SF-268 CNS
SNB-19 CNS = test system: SNB-19 CNS
SW-620 colon = test system: SW-620 colon
T-47D breast = test system: T-47D breast

## COc1cc(-c2nn(-c3cccc(NC(=O)CCN4CCN(C)CC4)c3)cc2-c2ccncc2)ccc1Cl
HL-60(TB) leukemia
  GI50: 0.735 µM
  TGI: 2.79 µM
K-562 leukemia
  GI50: 0.73 µM
  TGI: 2.53 µM
KM12 colon
  GI50: 1.36 µM
  TGI: 4.59 µM
MALME-3M melanoma
  GI50: 0.847 µM
  TGI: 2.36 µM
MOLT-4 leukemia
  GI50: 1.44 µM
  TGI: 4.89 µM
NCI/ADR-RES ovarian
  GI50: 2.62 µM
  TGI: 8.76 µM
SF-268 CNS
  GI50: 1.43 µM
  TGI: 3.53 µM
SNB-19 CNS
  GI50: 2.01 µM
  TGI: 8.89 µM
SW-620 colon
  GI50: 0.443 µM
  TGI: 1.86 µM
T-47D breast
  GI50: 2.34 µM
  TGI: 10.1 µM

## Cc1cc2c(cc1Cl)SC(C(=O)c1ccc(Cl)c(Cl)c1)NS2(=O)=O (stereo not given)
HL-60(TB) leukemia
  GI50: 39.8 µM
  TGI: 80.6 µM
K-562 leukemia
  GI50: 35.6 µM
  TGI: > 100 µM
KM12 colon
  GI50: 30.9 µM
  TGI: 80.9 µM
MALME-3M melanoma
  GI50: 45.3 µM
  TGI: > 100 µM
MOLT-4 leukemia
  GI50: 29.5 µM
  TGI: 64.4 µM
NCI/ADR-RES ovarian
  GI50: 38.6 µM
  TGI: > 100 µM
SF-268 CNS
  GI50: 33.6 µM
  TGI: 88.6 µM
SNB-19 CNS
  GI50: 35 µM
  TGI: > 100 µM
SW-620 colon
  GI50: 27.6 µM
  TGI: 72.9 µM
T-47D breast
  GI50: 19.9 µM
  TGI: 49.9 µM

## COc1c2ccccc2c(O)c2c(=O)ccn(C)c12
HL-60(TB) leukemia
  GI50: 3.25 µM
  TGI: 18.7 µM
K-562 leukemia
  GI50: 7.5 µM
  TGI: > 100 µM
KM12 colon
  GI50: 4.97 µM
  TGI: 38.3 µM
MALME-3M melanoma
  GI50: 2.37 µM
  TGI: 5.46 µM
MOLT-4 leukemia
  GI50: 17.9 µM
  TGI: > 83.8 µM
NCI/ADR-RES ovarian
  GI50: 4.62 µM
  TGI: 30 µM
SF-268 CNS
  GI50: 16.5 µM
  TGI: > 68.9 µM
SNB-19 CNS
  GI50: 7.77 µM
  TGI: > 100 µM
SW-620 colon
  GI50: 16.5 µM
  TGI: > 100 µM
T-47D breast
  GI50: 31.7 µM
  TGI: > 100 µM

## CC[C@@]1(O)C(=O)NCc2c1cc1n(c2=O)Cc2cc3c(NC(C)=O)cccc3nc2-1
HL-60(TB) leukemia
  GI50: > 100 µM
  TGI: > 100 µM
K-562 leukemia
  GI50: > 100 µM
  TGI: > 100 µM
KM12 colon
  GI50: > 100 µM
  TGI: > 100 µM
MALME-3M melanoma
  GI50: > 100 µM
  TGI: > 100 µM
MOLT-4 leukemia
  GI50: > 100 µM
  TGI: > 100 µM
NCI/ADR-RES ovarian
  GI50: > 100 µM
  TGI: > 100 µM
SF-268 CNS
  GI50: > 100 µM
  TGI: > 100 µM
SNB-19 CNS
  GI50: > 100 µM
  TGI: > 100 µM
SW-620 colon
  GI50: > 86.6 µM
  TGI: > 100 µM
T-47D breast
  GI50: > 100 µM
  TGI: > 100 µM

## CCN(CCO)CCCOc1ccc2c(Nc3cc(CC(=O)Nc4cccc(F)c4)[nH]n3)ncnc2c1
HL-60(TB) leukemia
  GI50: 13 µM
  TGI: 40.4 µM
K-562 leukemia
  GI50: 8.89 µM
  TGI: > 78.4 µM
KM12 colon
  GI50: 3.45 µM and 0.82 µM
  TGI: 16 µM and > 10 µM
MALME-3M melanoma
  GI50: 8.04 µM
  TGI: 26.8 µM
MOLT-4 leukemia
  GI50: 3.38 µM
  TGI: > 88.4 µM
NCI/ADR-RES ovarian
  GI50: > 100 µM
  TGI: > 100 µM
SF-268 CNS
  GI50: 9.62 µM
  TGI: 32.2 µM and > 10 µM
SNB-19 CNS
  GI50: 15.4 µM
  TGI: > 60.6 µM
SW-620 colon
  GI50: 7.23 µM
  TGI: 29.8 µM and > 4.11 µM
T-47D breast
  GI50: 13.9 µM
  TGI: 42.7 µM and > 2.45 µM

## C[C@H](c1ccccc1)N(CCC(=O)O)C(=O)CCN(C(=O)CCN(C(=O)CCN[C@H](C)c1ccccc1)[C@H](C)c1ccccc1)[C@H](C)c1ccccc1
HL-60(TB) leukemia
  GI50: > 100 µM
  TGI: > 100 µM
K-562 leukemia
  GI50: > 100 µM
  TGI: > 100 µM
KM12 colon
  GI50: > 100 µM
  TGI: > 100 µM
MALME-3M melanoma
  GI50: > 100 µM
  TGI: > 100 µM
MOLT-4 leukemia
  GI50: > 100 µM
  TGI: > 100 µM
NCI/ADR-RES ovarian
  GI50: > 100 µM
  TGI: > 100 µM
SF-268 CNS
  GI50: > 100 µM
  TGI: > 100 µM
SNB-19 CNS
  GI50: > 100 µM
  TGI: > 100 µM
SW-620 colon
  GI50: > 100 µM
  TGI: > 100 µM
T-47D breast
  GI50: > 100 µM
  TGI: > 100 µM

## O=c1[nH]c(SCc2ccccc2[N+](=O)[O-])nc2nc[nH]c12
HL-60(TB) leukemia
  TGI: > 100 µM
K-562 leukemia
  TGI: > 100 µM
KM12 colon
  TGI: > 100 µM
MALME-3M melanoma
  TGI: > 100 µM
MOLT-4 leukemia
  TGI: > 100 µM
NCI/ADR-RES ovarian
  TGI: > 100 µM
SF-268 CNS
  TGI: > 100 µM
SNB-19 CNS
  TGI: > 100 µM
SW-620 colon
  TGI: > 100 µM
T-47D breast
  TGI: > 100 µM

## N=C1C(c2nc3ccccc3s2)=C(O)CN1c1cc(Cl)cc(Cl)c1
HL-60(TB) leukemia
  GI50: > 100 µM
  TGI: > 100 µM
K-562 leukemia
  GI50: > 100 µM
  TGI: > 100 µM
KM12 colon
  GI50: > 100 µM
  TGI: > 100 µM
MALME-3M melanoma
  GI50: 29.4 µM
  TGI: > 100 µM
MOLT-4 leukemia
  GI50: > 100 µM
  TGI: > 100 µM
NCI/ADR-RES ovarian
  GI50: > 100 µM
  TGI: > 100 µM
SF-268 CNS
  GI50: 32.3 µM
  TGI: > 100 µM
SNB-19 CNS
  GI50: > 100 µM
  TGI: > 100 µM
SW-620 colon
  GI50: > 100 µM
  TGI: > 100 µM
T-47D breast
  GI50: > 100 µM
  TGI: > 100 µM

## COc1cc(NC(C)CCCN2C(=O)c3ccccc3C2=O)c2ncccc2c1OC (stereo not given)
HL-60(TB) leukemia
  GI50: 15.2 µM
  TGI: > 100 µM
K-562 leukemia
  GI50: 83.9 µM
  TGI: > 100 µM
KM12 colon
  GI50: 29.7 µM
  TGI: > 100 µM
MALME-3M melanoma
  GI50: 22.9 µM
  TGI: 58.3 µM
MOLT-4 leukemia
  GI50: 38.3 µM
  TGI: > 100 µM
NCI/ADR-RES ovarian
  GI50: 24 µM
  TGI: > 100 µM
SF-268 CNS
  GI50: 55.7 µM
  TGI: > 100 µM
SNB-19 CNS
  GI50: 67.7 µM
  TGI: > 100 µM
SW-620 colon
  GI50: 35.3 µM
  TGI: > 100 µM
T-47D breast
  GI50: 35.7 µM
  TGI: > 100 µM

## COc1cccc(/C=C\c2ccnc3ccccc23)c1
HL-60(TB) leukemia
  TGI: > 10 µM
K-562 leukemia
  TGI: > 10 µM
KM12 colon
  TGI: > 10 µM
MALME-3M melanoma
  TGI: > 10 µM
MOLT-4 leukemia
  TGI: > 10 µM
NCI/ADR-RES ovarian
  TGI: > 10 µM
SF-268 CNS
  TGI: > 10 µM
SNB-19 CNS
  TGI: > 10 µM
SW-620 colon
  TGI: > 10 µM
T-47D breast
  TGI: > 10 µM

## Cn1cc(C2=C(c3c(S(C)=O)n(C)c4ccccc34)C(=O)NC2=O)c2ccccc21 (stereo not given)
HL-60(TB) leukemia
  GI50: 5.39 µM
  TGI: 17.7 µM
K-562 leukemia
  GI50: 8.89 µM
  TGI: > 25 µM
KM12 colon
  GI50: 7.9 µM
  TGI: > 25 µM
MALME-3M melanoma
  GI50: > 25 µM
  TGI: > 25 µM
MOLT-4 leukemia
  GI50: 9.4 µM
  TGI: > 25 µM
NCI/ADR-RES ovarian
  GI50: 9.19 µM
  TGI: > 25 µM
SF-268 CNS
  GI50: 11.7 µM
  TGI: > 25 µM
SNB-19 CNS
  GI50: 25 µM
  TGI: > 25 µM
SW-620 colon
  GI50: 7.78 µM
  TGI: > 25 µM
T-47D breast
  GI50: 8.35 µM
  TGI: > 25 µM

## O=C(c1ccco1)c1c(C(F)(F)F)n([O-])c2ccc(F)cc2[n+]1=O
HL-60(TB) leukemia
  GI50: 0.186 µM
  TGI: 0.452 µM
K-562 leukemia
  GI50: 0.065 µM
  TGI: 0.219 µM
KM12 colon
  GI50: 0.213 µM
  TGI: 0.568 µM
MALME-3M melanoma
  GI50: 1.09 µM
  TGI: 3.21 µM
MOLT-4 leukemia
  GI50: 0.219 µM
  TGI: 0.54 µM
NCI/ADR-RES ovarian
  GI50: 2.19 µM
  TGI: 5.59 µM
SF-268 CNS
  GI50: 1.24 µM
  TGI: 2.85 µM
SNB-19 CNS
  GI50: 1.06 µM
  TGI: 2.41 µM
SW-620 colon
  GI50: 0.316 µM
  TGI: 1.16 µM
T-47D breast
  GI50: 0.54 µM
  TGI: 3.21 µM

## c1cc2c(c(NC3=NCCN3)c1)CCCC2
HL-60(TB) leukemia
  TGI: > 100 µM
K-562 leukemia
  TGI: > 100 µM
KM12 colon
  TGI: > 100 µM
MALME-3M melanoma
  TGI: > 100 µM
MOLT-4 leukemia
  TGI: > 100 µM
NCI/ADR-RES ovarian
  TGI: > 100 µM
SF-268 CNS
  TGI: > 100 µM
SNB-19 CNS
  TGI: > 100 µM
SW-620 colon
  TGI: > 100 µM
T-47D breast
  TGI: > 100 µM

## CNc1ncc2cc(-c3cc(NC(=O)NCCC(C)(C)C)c(F)cc3C)c(C)nc2n1
HL-60(TB) leukemia
  GI50: 0.0668 µM and 0.0811 µM
  TGI: 17.8 µM and > 10 µM
K-562 leukemia
  GI50: 0.227 µM and 0.33 µM
  TGI: > 100 µM
KM12 colon
  GI50: 0.405 µM and 0.448 µM
  TGI: > 100 µM
MALME-3M melanoma
  GI50: < 0.01 µM and 0.00462 µM
  TGI: < 0.011 µM and 0.0522 µM
MOLT-4 leukemia
  GI50: 0.688 µM and > 2.45 µM
  TGI: > 69.7 µM
NCI/ADR-RES ovarian
  GI50: 1.5 µM and 1.35 µM
  TGI: > 100 µM
SF-268 CNS
  GI50: 0.716 µM and 0.721 µM
  TGI: > 100 µM
SNB-19 CNS
  GI50: 2.23 µM and 1.55 µM
  TGI: > 100 µM
SW-620 colon
  GI50: 0.27 µM and 0.256 µM
  TGI: > 100 µM
T-47D breast
  GI50: 0.819 µM and 1.51 µM
  TGI: 25.1 µM and > 10 µM
